Reference: US20140186294A1, “PHAGOCYTIC ACTIVITY AS A MARKER OF SYNUCLEINOPATHIC DISEASE” (ELAN PHARMACEUTICALS, INC., priority 2010, published 2014)

Key:
[1] = system: microglia; experiment: Flow cytometry phagocytosis assay with strepavidin or biotin beads; assay type: cell-based; conditions: 30 minutes pretreatment, beads 90 minutes
Description: Phagocytosis assay: 6 μm strepavidin beads or 5.2 μm biotin beads were added to microglia for 90 minutes. Cells were moved to ice and stained with either a biotin or strepavidin labeled antibodies to identify un-ingested beads. To confirm the ability to identify intra-verses extracellular bound beads by flow cytometry microglia were treated with Cytochalasin D for 30 minutes prior to the addition of beads.

[2] = system: LRRK2; experiment: LRRK2 mRNA, protein and kinase activity in INF-γ treated microglia; assay type: cell-based; conditions: INF-γ treatment of microglia
From the text: FIG. 16: INF-γ treatment of microglia induced LRRK2 mRNA transcript levels and protein levels by about 2 fold.
We have tested the effect of LRRK2 kinase inhibitors on phagocytosis in cells transformed with LRRK2 G2019S. We have a number of compounds known to inhibit LRRK2 kinase activity. Some of these compounds have enantiomers that are known inhibitors of either cFMS or PLK2 inhibitors but have minimal effect on LRRK2. Pairs of enantiomers one of which is known inhibitor of LRRK2 and one of which inhibits cFMS or PLK2 without substantially effect on LRRK2 can be used to measure LRRK2-specific effects on phagocytosis.

[3] = system: microglia; experiment: Phagocytosis of 10 micron beads by INFγ treated microglia, with or without LRRK2 inhibitors; assay type: cell-based; conditions: INFγ 24 hr
[4] = system: wild type microglia; experiment: Phagocytosis after INFγ overnight, wild type littermate microglia; assay type: cell-based, mouse; conditions: beads 90 minutes
From the text: (§1) To test a more physiologic system in which altered activation of LRRK2 and elevated synuclein may occur, we tested the effect of INFγ treatment on phagocytosis in wild type and synuclein-overexpressing microglia. As described above INFγ treatment naturally raises LRRK2 levels as well as increased LRRK2 phosphorylation and activity. Using our line 3 heterozygote X heterozygote crosses (generating homozygous alpha synuclein mice) in which, by culturing each pup separately wild type and synuclein overexpressing littermate cultures are generated. Microglia isolated from the various pups were exposed to INFγ overnight and which point […] beads were added for 90 minutes and phagocytosis was assessed while we were still blinded to the genotype of each culture. […] The ability of the environment to impact these pathways may help explain the incomplete penetrance and onset of Parkinson's symptoms observed with various familial forms of PD.

[5] = system: synuclein overexpressing cells; experiment: Phagocytosis after INFγ overnight, synuclein overexpressing microglia; assay type: cell-based, mouse; conditions: beads 90 minutes
From the text: as §1

[6] = system: H4 cells; experiment: Bead phagocytosis in H4 cells with tetracycline inducible synuclein transfected with Rab proteins; assay type: cell-based, human; conditions: synuclein overexpressing H4 cells (tetracycline 48 hours), 4 μM beads 90 minutes
Description: FIG. 11: Rabs proteins were transfected into a stable H4 cells containing a tetracycline inducible synuclein construct. Cells were treated or untreated with tetracycline for 48 hours and then fed 4 μM beads for 90 minutes and a phagocytic index calculated.
In quantifying phagocytosis in cells overexpressing synuclein we noticed that synuclein translocates to the phagocytic cup and localized with regions of active actin rearrangement. Under resting conditions synuclein resides in the cytoplasm and following 45 and 90 minutes of bead addition synuclein translocates to sites of actin polymerization and bead contact. SNARE complexes are composed of three components, a SNAP, a syntaxin, and a VAMP protein. These three proteins come together and prime vesicles for fusion with the plasma membrane. On fusion vesicles release their contents and SNARE complexes are disassembled by two adaptor proteins, NSF and α-SNAP. Some members from these dissociated complexes recycle back to the cytoplasm via recycling endosomes and can be used to prime subsequent fusion events. All three protein members of the SNARE complex are alpha helices and on assembly form an energy favorable, very unique SDS stable complex. Although these complexes resist SDS dissociation they will dissociate following boiling. Therefore one SNARE complexes can be flowed as SDS stable complexes in boiled and unboiled lysates. We hypothesized that defective vesicle mobilization may be associated with or due to altered SNARE complex formation of SNARE complex. H4 cells transfected with synuclein were fed beads for 15, 45, or 90 minutes, samples were lysed and run on western formation. […] Alterations in SNARE complexes were also observed in microglia isolated from synuclein genomic mice (data not shown). To elucidate how synuclein alters vesicle trafficking and SNARE complex formation/function we assessed interaction of synuclein with components of the SNARE family. […] To test the possibility that molecules which facilitate vesicle movement could overcome the ability of elevated levels of synuclein to block phagocytosis, a stable H4 cell line overexpressing synuclein was transfected with various Rab proteins. We verified that the Rab proteins were overexpressed and phagocytosis was assessed in wild type and synuclein over expressing cells.

[7] = system: LRRK2; experiment: LRRK2 phosphorylation in stimulated murine microglia (PT1967 P-LRRK2 antibody); assay type: cell-based, mouse; conditions: primary microglia stimulated for various times
Description: Although neurons express LRRK2, this expression appears to be low relative to that of B-cells and macrophages. […] For example, murine microglia were stimulated with MCSF for various times or […] beads for 30 minutes. LRRK2 phosphorylation was probed with PT1967 P-LRRK2 antibody.

C=C1[C@@H](C)[C@H]2[C@H](Cc3ccccc3)NC(=O)[C@]23[C@H](OC(C)=O)/C=C/[C@@](C)(O)C(=O)[C@@H](C)C/C=C/[C@H]3[C@@H]1O [Cytochalasin D]
phagocytosis of 5 and 6 micron beads [1]: blocked this phagocytosis

INFγ: interferon gamma, described as agonist of LRRK2
induction of LRRK2 mRNA transcript levels [2]: about 2 fold
induction of LRRK2 protein levels [2]: about 2 fold
phagocytosis of 10 micron beads [3]: increased phagocytosis
phagocytosis [4]: enhanced phagocytosis
phagocytosis [5]: even further reduction in phagocytosis

B1: Rab3b: Rab protein (Swiss Prot P20337) overexpressed by transfection in H4 cells (protein, UniProt P20337 2-219, looked up)
Ras-related protein Rab-3B: ASVTDGKTGVKDASDQNFDYMFKLLIIGNSSVGKTSFLFRYADDTFTPAFVSTVGIDFKVKTVYRHEKRVKLQIWDTAGQERYRTITTAYYRGAMGFILMYDITNEESFNAVQDWATQIKTYSWDNAQVILVGNKCDMEEERVVPTEKGQLLAEQLGFDFFEASAKENISVRQAFERLVDAICDKMSDSLDTDPSMLGSSKNTRLSDTPPLLQQNCSC
phagocytosis (phagocytic index) [6]: rescued synuclein modulation of phagocytosis
phagocytosis (phagocytic index) ([6]; listed as Rab3B): restored phagocytosis

B2: Rab11b: Rab protein (Swiss Prot Q15907) overexpressed by transfection in H4 cells (protein, UniProt Q15907 2-215, looked up)
Ras-related protein Rab-11B: GTRDDEYDYLFKVVLIGDSGVGKSNLLSRFTRNEFNLESKSTIGVEFATRSIQVDGKTIKAQIWDTAGQERYRAITSAYYRGAVGALLVYDIAKHLTYENVERWLKELRDHADSNIVIMLVGNKSDLRHLRAVPTDEARAFAEKNNLSFIETSALDSTNVEEAFKNILTEIYRIVSQKQIADRAAHDESPGNNVVDISVPPTTDGQKPNKLQCC
phagocytosis (phagocytic index) [6]: rescued synuclein modulation of phagocytosis
phagocytosis (phagocytic index) ([6]; listed as Rab11B): restored phagocytosis

B3: INFγ: interferon gamma, described as agonist of LRRK2 (protein, UniProt P01579 24-161, looked up)
Interferon gamma: QDPYVKEAENLKKYFNAGHSDVADNGTLFLGILKNWKEESDRKIMQSQIVSFYFKLFKNFKDDQSIQKSVETIKEDMNVKFFNSNKKKRDDFEKLTNYSVTDLNVQRKAIHELIQVMAELSPAAKTGKRKRSQMLFRG
LRRK2 kinase activity (LRRK2 phosphorylation, LRRK-tide phosphorylation assay) [2]: apparent increase in LRRK2 kinase activity

B4: MCSF: stimulus that engages the actin cytoskeleton, used on murine microglia (protein, UniProt P07141 33-552, looked up)
Macrophage colony-stimulating …: KEVSEHCSHMIGNGHLKVLQQLIDSQMETSCQIAFEFVDQEQLDDPVCYLKKAFFLVQDIIDETMRFKDNTPNANATERLQELSNNLNSCFTKDYEEQNKACVRTFHETPLQLLEKIKNFFNETKNLLEKDWNIFTKNCNNSFAKCSSRDVVTKPDCNCLYPKATPSSDPASASPHQPPAPSMAPLAGLAWDDSQRTEGSSLLPSELPLRIEDPGSAKQRPPRSTCQTLESTEQPNHGDRLTEDSQPHPSAGGPVPGVEDILESSLGTNWVLEEASGEASEGFLTQEAKFSPSTPVGGSIQAETDRPRALSASPFPKSTEDQKPVDITDRPLTEVNPMRPIGQTQNNTPEKTDGTSTLREDHQEPGSPHIATPNPQRVSNSATPVAQLLLPKSHSWGIVLPLGELEGKRSTRDRRSPAELEGGSASEGAARPVARFNSIPLTDTGHVEQHEGSSDPQIPESVFHLLVPGIILVLLTVGGLLFYKWKWRSHRDPQTLDSSVGRPEDSSLTQDEDRQVELPV
LRRK2 phosphorylation [7]: can be enhanced
